Molecules are shown by their SMILES.

The first assay has as its system NCI-H226 cells. The experiment in a line: Cell growth inhibitory effect on human mesothelioma cell line (cell counting kit 8, 6 days). Type of assay: cell-based. As to conditions: NCI-H226, 144 h. The text has this:
(§1) NCI-H226 cells, a human mesothelioma cell line (ATCC, CRL-5826), NCI-H322 cells, a human lung cancer cell line (the European Collection of Authenticated Cell Cultures, 95111734), OUTOKO cells, a human ovarian cancer cell line (JCRB cell bank, KRB1048) and […] were each subcultured by keeping the cell density under 80% in a RPMI1640 culture medium with 10% fetal bovine serum (FBS). NCI-H226 cells, NCI-H322 cells and SSP-25 cells were each suspended in the RPMI1640 culture medium mentioned above, and plated to a 96-well flat-bottom plate at 500 cells/well in each well, and incubated at 37° C. in an incubator with 5% CO2 for one day. After the incubation, the evaluation of cell growth inhibitory activity was started. OVTOKO cells were suspended in the RPMI1640 culture medium mentioned above, and plated to a 96-well flat-bottom plate at 250 cells/well in each well, and incubated it at 37° C. in an incubator with 5% CO2 for one day. After the incubation, the evaluation of the cell growth inhibitory activity was started. The next day, a test compound was serially diluted to 5 times of its final concentration in the RPM11640 culture medium mentioned above, and the diluted solution was added to each well. In this case, the final concentration of DMSO in each well was adjusted to 0.1%. After the test compound was added, cells were incubated at 37° C. in an incubator with 5% CO2 for 6 days. At the addition of the test compound and 6 days after the addition, the cell counting measurement was performed using a cell counting kit 8 (made by DOJINDO) according to a protocol equivalent to DOJINDO's recommendation. A reagent contained in the kit was added to each plate and color reaction was performed for 2 or 3 hours at 37° C. in an incubator with 5% CO2. After the reaction, an absorbance at wavelength of 450 nm was measured using a microplate reader. A growth inhibition rate was calculated according to the following formula, from which the concentration of a test compound at which cell growth was inhibited by 50% (GI50 value) was determined.
On the technique in general: Tetrazolium dyes change colour on reduction, which living cells bring about.
One may read the GI50 as the concentration at which growth is held to half of that of the control. As for `[H]/C=C/C(=O)NC1CCOc2c1ccc(Oc1ccc(C(F)(F)F)cc1)c2F` (racemic) [Compound 31, N-[8-Fluoro-7-{4-(trifluoromethyl)phenoxy}chroman-4-yl]acrylamide], the GI50 is below 100 nM.

As for `[H]/C=C/C(=O)NC1CCOc2c1ccc(Oc1ccc(C(F)(F)F)cc1)c2OC` (racemic) [Compound 33, N-[8-Methoxy-7-{4-(trifluoromethyl)phenoxy}chroman-4-yl]acrylamide], the GI50 is below 100 nM. As to `C=CC(=O)N[C@@H]1CC[C@H](Oc2ccccc2)c2ncccc21` (relative stereo) [Compound 67, cis-N-(8-Phenoxy-5,6,7,8-tetrahydroquinolin-5-yl)acrylamide], the GI50 was 100 to 1000 nM.

The compound `C=CC(=O)N[C@@H]1CC[C@H](Oc2ccc(Cl)c(Cl)c2)c2nc(Cl)ccc21` (relative stereo) [Compound 178, cis-N-{2-Chloro-8-(3,4-dichlorophenoxy)-5,6,7,8-tetrahydroquinolin-5-yl}acrylamide] displayed a GI50 below 100 nM.

The compound `C=CC(=O)N[C@@H]1CC[C@H](Oc2cnc(Cl)c(Cl)c2)c2nc(Cl)ccc21` (relative stereo) [Compound 181, cis-N-[2-Chloro-8-{(5,6-dichloropyridin-3-yl)oxy}-5,6,7,8-tetrahydroquinolin-5-yl]acrylamide] returned a GI50 of 100 to 1000 nM. `C=CC(=O)N[C@@H]1CC[C@H](Oc2ccc(C(F)(F)F)cc2)c2nc(CC)ccc21` (relative stereo) [Compound 186, cis-N-[2-ethyl-8-{4-(trifluoromethyl)phenoxy}-5,6,7,8-tetrahydroquinolin-5-yl]acrylamide]: the GI50 is 100 to 1000 nM. Still for that read-out and setting: with `C=CC(=O)NC1CC[C@@H](Oc2ccc(Cl)cc2)c2nc(OC)ccc21` (stereo in doubt) [Compound 81, trans-N-{8-(4-Chlorophenoxy)-2-methoxy-5,6,7,8-tetrahydroquinolin-5-yl}acrylamide] the figure was 100 to 1000 nM; with `C=CC(=O)Nc1cncc(Oc2ccc(OC(C)C)nc2)c1` [Compound 110, N-[5-{(6-Isopropoxypyridin-3-yl)oxy}pyridin-3-yl]acrylamide], 100 to 1000 nM; with `O=C(/C=C/C(F)(F)F)NCc1ccc(Oc2ccc(Cl)cc2)c2ncccc12` [Compound 135, (E)-N-[{8-(4-Chlorophenoxy)quinolin-5-yl}methyl]-4,4,4-trifluoro-2-butenamide], 100 to 1000 nM. The same measure, in the same setting: with `C=CC(=O)NCc1ccc(Oc2cnc(C(F)(F)F)nc2)c2ncccc12` [Compound 196, N-{(8-[{2-(Trifluoromethyl)pyrimidin-5-yl}oxy]quinolin-5-yl)methyl}acrylamide] the figure was 100 to 1000 nM. Still for that read-out and setting: with `C=CC(=O)NCc1cc(Oc2ccc(C(F)(F)F)cc2)c2ncccc2c1` [Compound 214] the figure was below 100 nM; with `C=CC(=O)NCc1nc2c(Oc3ccc(C(F)(F)F)cc3)cccc2o1` [Compound 254, N-([4-{4-(Trifluoromethyl)phenoxy}benzo[d]oxazol-2-yl]methyl)acrylamide], 100 to 1000 nM. Turning to `C=CC(=O)NCc1nc2cc(Oc3ccc(C(F)(F)F)cc3)ccc2o1` [Compound 255, N-([5-{4-(Trifluoromethyl)phenoxy}benzo[d]oxazol-2-yl]methyl)acrylamide], the GI50 lay in the range of 100 to 1000 nM. As to `C=CC(=O)NC1CCCOc2cc(Oc3ccc(C(F)(F)F)cc3)ccc21` (stereo not drawn) [Compound 261, N-[8-{4-(Trifluoromethyl)phenoxy}-2,3,4,5-tetrahydrobenzo[b]oxepin-5-yl]acrylamide], the concentration for 50% growth inhibition (GI50) is 100 to 1000 nM.

`C=CC(=O)NCc1ccc(CCc2ccc(C(F)(F)F)cc2)c2nc(C)oc12` [Compound 267, N-([2-Methyl-4-{4-(trifluoromethyl)phenethyl}benzo[d]oxazol-7-yl]methyl)acrylamide] registered a GI50 of 100 to 1000 nM.

For a further assay, the system named is NCI-H322 cells. The experiment in a line: Cell growth inhibitory effect on human lung cancer cell line (cell counting kit 8, 6 days). Type of assay: cell-based. The settings on record: 144 h; human lung cancer cell line NCI-H322, 6 days incubation.
Description: as §1
In turn, `C=CC(=O)N[C@@H]1CC[C@H](Oc2ccc(C(F)(F)F)cc2)c2cnccc21` (stereo in doubt) [Compound 228, N-[8-{4-(Trifluoromethyl)phenoxy}-5,6,7,8-tetrahydroisoquinolin-5-yl]acrylamide] yielded a concentration for 50% growth inhibition (GI50) below 1000 nM. In turn, `C=CC(=O)NCc1cc(Oc2ccc(C(F)(F)F)cc2)c2ncccc2c1` [Compound 214] displayed a GI50 below 1000 nM.

The next assay concerns OVTOKO cells. Briefly: Cell growth inhibitory effect on human ovarian cancer cell line (cell counting kit 8, 6 days). Type of assay: cell-based. The settings on record: 144 h, 6 days incubation.
Description: as §1
For the compound `[H]/C=C/C(=O)NC1CCOc2c1ccc(Oc1ccc(C(F)(F)F)cc1)c2F` (racemic) [Compound 31, N-[8-Fluoro-7-{4-(trifluoromethyl)phenoxy}chroman-4-yl]acrylamide], the GI50 was at most 3000 nM.

Turning to `[H]/C=C/C(=O)NC1CCOc2c1ccc(Oc1ccc(C(F)(F)F)cc1)c2OC` (racemic) [Compound 33, N-[8-Methoxy-7-{4-(trifluoromethyl)phenoxy}chroman-4-yl]acrylamide], the GI50 was at most 3000 nM. `C=CC(=O)NC1CCOc2c1ccc(Oc1ccc(C(F)(F)F)nc1)c2Br` (stereo not drawn) [Compound 169, N-(8-Bromo-7-[{6-(trifluoromethyl)pyridin-3-yl}oxy]chroman-4-yl)acrylamide]: the GI50 was at most 3000 nM. Regarding `C=CC(=O)NCc1ccc(Oc2ccc(Cl)cc2)c2c1CCCO2` [Compound 176, N-[{8-(4-Chlorophenoxy)chroman-5-yl}methyl]acrylamide], the GI50 is at most 3000 nM. In the case of `C=CC(=O)NCc1ccc(Oc2ccc(C(F)(F)F)cc2)c2ncc(C)cc12` [Compound 199, N-([3-Methyl-8-{4-(trifluoromethyl)phenoxy}quinolin-5-yl]methyl)acrylamide], the GI50 was at most 3000 nM. As to `C=CC(=O)NCc1ccc(Oc2ccc(C(F)(F)F)nc2)c2ncc(C)cc12` [Compound 200, N-{(3-Methyl-8-[{6-(trifluoromethyl)pyridin-3-yl}oxy]quinolin-5-yl)methyl}acrylamide], the 50% growth inhibitory concentration (GI50) is at most 3000 nM. On to `C=CC(=O)NCc1ccc(Oc2ccc(C(F)(F)F)cc2)c2nccc(C)c12` [Compound 201, N-([4-Methyl-8-{4-(trifluoromethyl)phenoxy}quinolin-5-yl]methyl)acrylamide], for which the GI50 was at most 3000 nM. On to `C=CC(=O)NCc1ccc(Sc2ccc(C(F)(F)F)cc2)c2ncccc12` [Compound 202, N-{(8-[{4-(Trifluoromethyl)phenyl}thio]quinolin-5-yl)methyl}acrylamide], for which the GI50 was at most 3000 nM. The same measure, in the same setting: under `C=CC(=O)NCc1ccc(Nc2ccc(C(F)(F)F)cc2)c2ncccc12` [Compound 203, N-{(8-[{4-(Trifluoromethyl)phenyl}amino]quinolin-5-yl)methyl}acrylamide] stands at most 3000 nM. In the case of `C=CC(=O)NCc1ccc(C(O)c2ccc(C(F)(F)F)cc2)c2ncccc12` (stereo not drawn) [Compound 206, N-{(8-[Hydroxy{4-(trifluoromethyl)phenyl}methyl]quinolin-5-yl)methyl}acrylamide], the GI50 is at most 3000 nM. Consider `C=CC(=O)NCc1ccc(C(=O)c2ccc(C(F)(F)F)cc2)c2ncccc12` [Compound 208, N-([8-{4-(Trifluoromethyl)benzoyl}quinolin-5-yl]methyl)acrylamide], for which the GI50 was at most 3000 nM. The compound `C=CC(=O)NCc1ccc(Cc2ccc(C(F)(F)F)cc2)c2ncccc12` [Compound 211, N-([8-{4-(Trifluoromethyl)benzyl}quinolin-5-yl]methyl)acrylamide] had a GI50 of at most 3000 nM. Same read-out and setting: with `C=CC(=O)NCc1ccc(Oc2ccc(C(F)(F)F)cc2)c2nc(C)ccc12` [Compound 212, N-([2-Methyl-8-{4-(trifluoromethyl)phenoxy}quinolin-5-yl]methyl)acrylamide] the figure was at most 3000 nM; with `C=CC(=O)NCc1ccc(Oc2ccc(C(F)(F)F)cc2)c2cccnc12` [Compound 216, N-([5-{4-(Trifluoromethyl)phenoxy}quinolin-8-yl]methyl)acrylamide], at most 3000 nM; with `C=CC(=O)NCc1ccc(Oc2ccc(C(F)(F)F)nc2)c2cccnc12` [Compound 219, N-{(5-[{6-(Trifluoromethyl)pyridin-3-yl}oxy]quinolin-8-yl)methyl}acrylamide], at most 3000 nM. `C=CC(=O)NCc1cnc(Oc2ccc(C(F)(F)F)cc2)c2ccccc12` [Compound 222, N-([1-{4-(Trifluoromethyl)phenoxy}isoquinolin-4-yl]methyl)acrylamide]: the GI50 is at most 3000 nM. `C=CC(=O)NCc1ccc(Oc2ccc(C(F)(F)F)cc2)c2cnccc12` [Compound 223, N-([8-{4-(Trifluoromethy)phenoxy}isoquinolin-5-yl]methyl)acrylamide] gave a GI50 of at most 3000 nM.

Take `C=CC(=O)NCc1ncc(Oc2ccc(C(F)(F)F)cc2)c2ccccc12` [Compound 224, N-([4-{4-(Trifluorophenyl)phenoxy}isoquinolin-1-yl]methyl)acrylamide]: the concentration for 50% growth inhibition (GI50) was at most 3000 nM. Compound `C=CC(=O)Nc1cnc(Oc2ccc(Cl)cc2)c2ncccc12` [Compound 226, N-{8-(4-chlorophenoxy)-1,7-naphthyridin-5-yl}acrylamide] registered a GI50 of at most 3000 nM. The compound `C=CC(=O)NCc1cnc(Oc2ccc(Cl)cc2)c2ncccc12` [Compound 227, N-[{8-(4-Chlorophenoxy)-1,7-naphthyridin-5-yl}methyl]acrylamide] gave a GI50 of at most 3000 nM.

`C=CC(=O)NC1COc2c(cccc2Oc2ccc(C(F)(F)F)nc2)C1` (stereo not drawn) [Compound 229, N-(8-[{6-(Trifluoromethyl)pyridin-3-yl}oxy]chroman-3-yl)acrylamide]: the 50% growth inhibitory concentration (GI50) is at most 3000 nM. Regarding `C=CC(=O)NCc1ccc(CCc2ccc(C(F)(F)F)cc2)c2nc(C)oc12` [Compound 267, N-([2-Methyl-4-{4-(trifluoromethyl)phenethyl}benzo[d]oxazol-7-yl]methyl)acrylamide], the GI50 is at most 3000 nM.

Values taken from US11447471B2, “α,β-unsaturated amide compound” (KYOWA KIRIN CO., LTD., priority 2017, dated 2022).
